Measurements published in patent US10821116B2, “Administration of iloprost as aerosol bolus” (VECTURA GMBH, priority 2011, dated 2020).
“Also recorded” adds a separate entry of the source. Like-named read-outs stand apart in the source and are kept apart here.

Columns and labels:
[1] = system: patients suffering from pulmonary hypertension (PH); assay: Iloprost bolus inhalation in six further patients (Example 4); assay type: in vivo, human; details: bolus inhalation as in Example 3
Method: Six further patients suffering from pulmonary hypertension (PH) were treated with iloprost bolus inhalation as in Example 3.

[2] = system: patients with pulmonary arterial hypertension; assay: Clinical pilot study of iloprost bolus inhalation (Example 3); assay type: in vivo, human
Method: A clinical pilot study to evaluate the safety and tolerability of nebulised iloprost administered by bolus inhalation according to the invention was conducted with 4 patients. Eligible were male and female patients with pulmonary arterial hypertension in the age from 18 to 70 years having a mean pulmonary arterial blood pressure (PAP) higher than 25 mm Hg, a pulmonary vascular resistance (PVR) higher than 240 dyn*s*cm^−5, a central venous pressure (CVP) higher than 3 mm Hg, and a pulmonary capillary wedge pressure (PCWP) lower than 12 mm Hg. Excluded were patients with a contraindication for cardiac catheterisation (such as coagulopathy, bleeding disorder, acute infection, severe cardiac dysrhythmia), pregnancy, systemic systolic blood pressure below 110 mm Hg, highly impaired ventricular function with cardiac index below 1.8 L/min*m^2, and known lack of pulmonary vascular reactivity. Patients were monitored by ECG, pulse oxymetry, and non-invasive blood pressure measurement. An intracardiac catheter was introduced into the distal pulmonary artery to measure PAP, CVP, PCWP, and cardiac output. Also measured were the heart rate, systemic arterial pressure (SAP), systemic vascular resistance (SVR), central arterial and venous blood gases. After the initial determination of all parameters the reactivity of the pulmonary vasculature to oxygen (2 to 4 L/min) and nitric oxide (20 ppm) was tested. Subsequently, patients inhaled a single dose of 2.5 μg of nebulised iloprost in two consecutive breaths, using the same inhalation system and iloprost composition as described in Example 1. Haemodynamic parameters and clinical condition of the patients were assessed before and up to 30 minutes after inhalation. In the absence of adverse effects, a second inhalation manoeuvre with 4 consecutive breaths corresponding to a dose 5 μg iloprost was performed, again followed by an observation period of at least 30 minutes.

[3] = cited from earlier work
[4] = bolus inhalation of 2.5 μg and 5 μg, versus slow inhalation of iloprost

mean systemic arterial pressure (SAP) after bolus inhalation versus baseline, significance ([2]; FIG. 3, n=4, Mann-Whitney rank-sum test): not significant | systemic vascular resistance (SVR) after bolus inhalation versus baseline, significance ([2]; FIG. 4, n=4, Mann-Whitney rank-sum test): not significant
SMILES: CC#CCC(C)[C@H](O)/C=C/[C@@H]1[C@H]2C/C(=C/CCCC(=O)O)C[C@H]2C[C@H]1O (stereo partly drawn) [iloprost, 5-{(E) -(1S,5S,6R,7R)-7-hydroxy-6[(E)-(3S, 4RS)-3-hydroxy-4-methyl-1-octen-6-inyl]-bi-cyclo[3.3.0]octan-3-ylidene}pentanoic acid]
adverse effects ([1]; six PH patients): no adverse effects were observed other than the SAP and SVR changes which were mild | pulmonary vascular effects ([1]; six PH patients (PAH, iPAH, portopulmonary, CTEPH)): very comparable to those found in Example 3 | mean pulmonary arterial pressure (PAP) after bolus inhalation versus baseline, p ([2]; FIG. 1, n=4, Mann-Whitney rank-sum test): < 0.05 | tolerability of the treatment ([2]; bolus inhalation of 2.5 μg (2 breaths) and 5 μg (4 breaths), 4 PAH patients): all patients tolerated the treatment well; also recorded: well-tolerated by patients | systemic side effects (SAP and SVR changes) [2, 4]: comparable to those observed after conventional iloprost treatment | therapeutic pulmonary vascular effects (PAP and PVR changes) [2, 4]: comparable to those observed after conventional iloprost treatment | solubility ([3]; acetone): soluble | solubility ([3]; aqueous buffer at pH 3): very slightly soluble | solubility ([3]; aqueous buffer at pH 5): very slightly soluble | solubility ([3]; aqueous buffer at pH 7): soluble | solubility ([3]; aqueous buffer pH 9): sparingly soluble | solubility ([3]; distilled water): very slightly soluble | solubility ([3]; ethanol): soluble | solubility ([3]; ethyl acetate): soluble | solubility ([3]; methanol): soluble | aqueous solubility ([3]; water): rather poor
